This experiment deals with T1, human GluN1/GluN2B NMDA receptors (Homo sapiens, UniProt Q05586+Q13224).
T1 construct: expressed in transfected cells
The experiment in a line: Calcium flux (FLIPR) assay on cloned human NR1/GluN2B ion channels expressed in mammalian cells, standard assay. In kind it is cell-based. The note with it: glutamate ~EC40 and 10 μM glycine, stable cell line with Tet-On induced expression. As to the method: Effects of Test Articles on Cloned Human NR1/GluN2B Ion Channels Expressed in Mammalian Cells
NMDA receptors are ion channels that are highly permeable to Ca^2+ ions, rendering it possible to monitor NMDA receptor function using cell-based calcium flux assay. In this assay, co-agonists glutamate and glycine are added to cells heterologously expressing human GluN1/GluN2B NMDA receptors to initiate cellular Ca^2+ influx. The time course of the changes in intracellular calcium is measured using a fluorescent dye and a FLIPR (Fluorometric Imaging Plate Reader) device.
Twenty four hours before measurements, the expression of the NMDA receptors in the stable cell line is induced with Tet-On inducible system in the presence of a non-selective NMDA receptor blocker. On the day of the experiment, cell culture media is carefully washed and the cells are loaded with Calcium 5 Dye Kit (Molecular Devices) in dye loading buffer containing 137 mM NaCl, 4 mM KCl, 2 mM CaCl2, 0.5 mM MgCl2 (standard assay) or 1.5 mM MgCl2 (HTS assay), 10 mM HEPES and 5 mM D-glucose; pH 7.4. After 1 h incubation at the room temperature, the dye is washed away with the assay buffer (137 mM NaCl (standard assay) or 150 mM (HTS assay), 4 mM KCl (standard assay) or 3 mM (HTS assay), 2 mM CaC2, 0.01 mM EDTA, 10 mM HEPES and 5 mM D-glucose; pH 7.4) In the FLIPR TETRA reader, various concentrations of the test compounds are added to the cells for 5 min while fluorescence is monitored to detect potential agonist activity. Next, co-agonists, glutamate and glycine are added for another 5 minutes. The concentration of glutamate corresponding to ˜EC40 (standard assay) or EC40 (HTS assay) is used to maximize the assay's signal window and ability to detect NMDA receptor antagonists and negative allosteric modulators. A saturating concentration (10 μM) of glycine is also present in the assay. A non-selective NMDA receptor antagonist, (+)MK-801 is used as a positive control for antagonist activity. The fluorescent signal in the presence of test compounds is quantified and normalized to the signal defined by the appropriate control wells.
Background: A change in cytosolic calcium serves as a functional read-out for many receptors and channels.

Where a name gives a salt, the structure may show the parent alone.

T1 sequence (Q13224 27-1484, other chains not shown): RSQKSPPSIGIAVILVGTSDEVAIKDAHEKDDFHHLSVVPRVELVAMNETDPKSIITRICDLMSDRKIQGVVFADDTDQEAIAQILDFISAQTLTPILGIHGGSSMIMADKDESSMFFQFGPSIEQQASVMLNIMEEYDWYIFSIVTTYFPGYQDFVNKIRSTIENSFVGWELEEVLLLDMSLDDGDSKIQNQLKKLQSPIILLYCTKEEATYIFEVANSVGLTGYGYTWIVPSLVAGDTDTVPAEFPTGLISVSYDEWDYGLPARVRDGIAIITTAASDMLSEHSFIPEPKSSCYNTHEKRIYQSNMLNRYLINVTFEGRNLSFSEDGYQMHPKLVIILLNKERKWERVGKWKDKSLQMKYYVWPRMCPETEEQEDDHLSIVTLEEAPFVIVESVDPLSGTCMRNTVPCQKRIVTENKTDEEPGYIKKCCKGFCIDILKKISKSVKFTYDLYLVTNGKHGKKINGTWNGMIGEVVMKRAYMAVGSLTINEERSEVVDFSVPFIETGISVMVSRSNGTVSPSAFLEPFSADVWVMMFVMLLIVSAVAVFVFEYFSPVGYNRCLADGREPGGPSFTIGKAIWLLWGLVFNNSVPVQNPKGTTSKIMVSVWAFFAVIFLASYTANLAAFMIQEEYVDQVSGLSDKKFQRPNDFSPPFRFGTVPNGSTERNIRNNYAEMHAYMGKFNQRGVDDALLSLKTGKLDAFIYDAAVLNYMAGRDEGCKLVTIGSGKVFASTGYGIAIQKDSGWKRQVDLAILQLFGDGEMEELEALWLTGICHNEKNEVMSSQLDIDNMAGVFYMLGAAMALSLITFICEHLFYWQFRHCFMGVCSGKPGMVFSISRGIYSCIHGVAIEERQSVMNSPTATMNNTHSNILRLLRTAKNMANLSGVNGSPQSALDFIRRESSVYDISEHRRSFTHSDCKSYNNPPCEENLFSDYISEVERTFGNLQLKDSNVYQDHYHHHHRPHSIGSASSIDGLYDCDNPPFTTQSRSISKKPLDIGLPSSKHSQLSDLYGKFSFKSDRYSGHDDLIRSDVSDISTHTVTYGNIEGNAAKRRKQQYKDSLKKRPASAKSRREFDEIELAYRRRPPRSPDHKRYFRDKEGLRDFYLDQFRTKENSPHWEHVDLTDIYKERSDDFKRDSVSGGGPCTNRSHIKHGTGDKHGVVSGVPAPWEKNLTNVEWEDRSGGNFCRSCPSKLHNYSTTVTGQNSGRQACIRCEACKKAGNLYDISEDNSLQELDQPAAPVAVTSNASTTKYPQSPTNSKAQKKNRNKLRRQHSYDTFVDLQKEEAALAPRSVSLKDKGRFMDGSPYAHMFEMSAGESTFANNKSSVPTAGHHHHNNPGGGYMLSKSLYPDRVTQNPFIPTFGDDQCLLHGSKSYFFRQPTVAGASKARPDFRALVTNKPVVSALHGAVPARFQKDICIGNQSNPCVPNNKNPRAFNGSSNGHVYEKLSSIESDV

A word on the IC50: it is the concentration at which inhibition is half-maximal. For `CN1C[C@H](Cn2ncc3ncc(-c4ccc(F)c(C(F)F)c4)cc32)CC1=O` [Example 122, (R)-4-[[6-[3-(Difluoromethyl)-4-fluoro-phenyl]pyrazolo[4,3-b]pyridin-1-yl]methyl]-1-methyl-pyrrolidin-2-one], the half-maximal inhibitory concentration (IC50) came to 120 nM.
`O=C1NCC(Cn2ncc3ncc(-c4ccc(Cl)c(OC(F)F)c4)cc32)O1` (racemic) [Example 126, (RS)-5-[[6-[4-Chloro-3-(difluoromethoxy)phenyl]pyrazolo[4,3-b]pyridin-1-yl]methyl]oxazolidin-2-one]: the IC50 worked out at 306 nM.
As for `Cc1cc(-c2cnc3cnn(CC(O)C4CC4)c3c2)ccc1F` (racemic) [Example 101, (RS)-1-Cyclopropyl-2-[6-(4-fluoro-3-methyl-phenyl)pyrazolo[4,3-b]pyridin-1-yl]ethanol], the 50% inhibitory concentration (IC50) was 167 nM.
For `Cc1cc(-c2cnc3cnn(CC(=O)C(C)C)c3c2)ccc1F` [Example 7, 1-[6-(4-Fluoro-3-methyl-phenyl)pyrazolo[4,3-b]pyridin-1-yl]-3-methyl-butan-2-one], the 50% inhibitory concentration (IC50) came to 21 nM.
For `O=C(Cn1ncc2ncc(-c3cccc(F)c3F)cc21)C1CC1` [Example 64, 1-Cyclopropyl-2-[6-(2,3-difluorophenyl)pyrazolo[4,3-b]pyridin-1-yl]ethanone], the half-inhibitory concentration (IC50) was determined as 37 nM.
For the compound `CC(C)C(=O)Cn1ncc2ncc(-c3ccccc3)cc21` [Example 44, 3-Methyl-1-(6-phenylpyrazolo[4,3-b]pyridin-1-yl)butan-2-one], the IC50 was determined as 89 nM.
Regarding `FC(F)(F)c1cccc(-c2cnc3cnn(CC4CCCO4)c3c2)c1` (racemic) [Example 111, (RS)-1-(Tetrahydrofuran-2-ylmethyl)-6-[3-(trifluoromethyl)phenyl]pyrazolo[4,3-b]pyridine], the IC50 was 93 nM.
Turning to `COCCC(O)Cn1ncc2ncc(-c3cccc(C(F)(F)F)c3)cc21` (racemic) [Example 90, (RS)-4-Methoxy-1-[6-[3-(trifluoromethyl)phenyl]pyrazolo[4,3-b]pyridin-1-yl]butan-2-ol], the IC50 came to 1420 nM.
Regarding `CCC(=O)Cn1ncc2ncc(-c3ccc(F)cc3)cc21` [Example 28, 1-[6-(4-Fluorophenyl)pyrazolo[4,3-b]pyridin-1-yl]butan-2-one], the IC50 came to 32 nM.
Regarding `CCN1C[C@H](Cn2ncc3ncc(-c4ccc(F)c(C(F)F)c4)cc32)OC1=O` [Example 133, (R)-5-[[6-[3-(Difluoromethyl)-4-fluoro-phenyl]pyrazolo[4,3-b]pyridin-1-yl]methyl]-3-ethyl-oxazolidin-2-one], the IC50 turned out to be 204 nM.
In the case of `O=C(Cn1ncc2ncc(-c3ccc(F)c(C(F)F)c3)cc21)C1CC1` [Example 76, 1-Cyclopropyl-2-[6-[3-(difluoromethyl)-4-fluoro-phenyl]pyrazolo[4,3-b]pyridin-1-yl]ethanone], the IC50 worked out at 18 nM.
Regarding `O=C(Cn1ncc2ncc(-c3ccc(F)c(C(F)F)c3)cc21)c1ncc(F)cc1F` [Example 141, 2-(6-(3-(Difluoromethyl)-4-fluorophenyl)-1H-pyrazolo[4,3-b]pyridin-1-yl)-1-(3,5-difluoropyridin-2-yl)ethan-1-one], the half-inhibitory concentration (IC50) worked out at 409 nM.
For the compound `CN1C[C@H](Cn2ncc3ncc(-c4ccc(F)c(C(F)F)c4)cc32)OC1=O` [Example 129], the 50% inhibitory concentration (IC50) was 30 nM.
Turning to `CC(C)C(=O)Cn1ncc2ncc(-c3cccc(F)c3)cc21` [Example 46, 1-[6-(3-Fluorophenyl)pyrazolo[4,3-b]pyridin-1-yl]-3-methyl-butan-2-one], the half-inhibitory concentration (IC50) was 30 nM.
With `O=C(Cn1ncc2ncc(-c3ccc(F)c(C(F)F)c3)cc21)c1ccncc1` [Example 139, 2-[6-[3-(Difluoromethyl)-4-fluoro-phenyl]pyrazolo[4,3-b]pyridin-1-yl]-1-(4-pyridyl)ethanone] the figure was 118 nM.
For `CC[S+]([O-])Cn1ncc2ncc(-c3cc(F)c(F)c(F)c3)cc21` (racemic) [Example 88, (RS)-1-(Ethylsulfinylmethyl)-6-(3,4,5-trifluorophenyl)pyrazolo[4,3-b]pyridine], the IC50 was 736 nM.
For the compound `O=C(Cn1ncc2ncc(-c3cc(F)c(F)c(F)c3)cc21)C1CC1` [Example 9, 1-Cyclopropyl-2-[6-(3,4,5-trifluorophenyl)pyrazolo[4,3-b]pyridin-1-yl]ethanone], the half-maximal inhibitory concentration (IC50) came out at 30 nM.
As for `O=C(Cn1ncc2ncc(-c3ccc(F)c(C(F)F)c3)cc21)c1cnccn1` [Example 142, 2-(6-(3-(Difluoromethyl)-4-fluorophenyl)-1H-pyrazolo[4,3-b]pyridin-1-yl)-1-(pyrazin-2-yl)ethan-1-one], the IC50 stood at 74 nM.
The result for `CCC(=O)Cn1ncc2ncc(-c3ccc(F)c(F)c3F)cc21` [Example 43, 1-[6-(2,3,4-Trifluorophenyl)pyrazolo[4,3-b]pyridin-1-yl]butan-2-one] reads 28 nM; that for `Cc1cc(-c2cnc3cnn(CC(=O)C4CCC4)c3c2)ccc1F` [Example 70, 1-Cyclobutyl-2-[6-(4-fluoro-3-methyl-phenyl)pyrazolo[4,3-b]pyridin-1-yl]ethanone], 63 nM.
`CN1C(=O)CCC1Cn1ncc2ncc(-c3ccc(F)c(OC(F)F)c3)cc21` (racemic) [Example 114, (RS)-5-((6-(3-(Difluoromethoxy)-4-fluorophenyl)-1H-pyrazolo[4,3-b]pyridin-1-yl)methyl)-1-methylpyrrolidin-2-one]: the concentration for half-maximal inhibition (IC50) is more than 3000 nM.
With `CN1C[C@@H](Cn2ncc3ncc(-c4ccc(F)c(C(F)F)c4)cc32)CC1=O` [Example 121, (S)-4-[[6-[3-(Difluoromethyl)-4-fluoro-phenyl]pyrazolo[4,3-b]pyridin-1-yl]methyl]-1-methyl-pyrrolidin-2-one] the figure was 685 nM; with `OC(Cn1ncc2ncc(-c3ccc(F)c(C(F)F)c3)cc21)C1CC1` (racemic) [Example 104, (RS)-1-Cyclopropyl-2-(6-(3-(difluoromethyl)-4-fluorophenyl)-1H-pyrazolo[4,3-b]pyridin-1-yl)ethan-1-ol], 165 nM.
With `Cc1ccc(-c2cnc3cnn(CC(=O)C4CC4)c3c2)s1` [Example 56, 1-Cyclopropyl-2-[6-(5-methyl-2-thienyl)pyrazolo[4,3-b]pyridin-1-yl]ethanone] the figure was 15 nM; with `CCC(=O)Cn1ncc2ncc(-c3cc(F)cc(F)c3)cc21` [Example 1, 1-[6-(3,5-Difluorophenyl)pyrazolo[4,3-b]pyridin-1-yl]butan-2-one], 19 nM; with `CC(C)C(=O)Cn1ncc2ncc(-c3ccc(F)c(C(F)(F)F)c3)cc21` [Example 51, 1-[6-[4-Fluoro-3-(trifluoromethyl)phenyl]pyrazolo[4,3-b]pyridin-1-yl]-3-methyl-butan-2-one], 296 nM.
Regarding `Cc1cccc(-c2cnc3cnn(CC(=O)C4CC4)c3c2)c1F` [Example 71, 1-Cyclopropyl-2-[6-(2-fluoro-3-methyl-phenyl)pyrazolo[4,3-b]pyridin-1-yl]ethanone], the IC50 was 7 nM.
In the case of `Cc1cc(F)ccc1-c1cnc2cnn(CC(=O)C3CC3)c2c1` [Example 72, 1-Cyclopropyl-2-[6-(4-fluoro-2-methyl-phenyl)pyrazolo[4,3-b]pyridin-1-yl]ethanone], the IC50 was found to be 199 nM.
As to `CCC(=O)Cn1ncc2ncc(-c3ccc(F)c(F)c3)cc21` [Example 34, 1-[6-(3,4-Difluorophenyl)pyrazolo[4,3-b]pyridin-1-yl]butan-2-one], the IC50 was 17 nM.
On to `CN1CC(Cn2ncc3ncc(-c4ccc(F)c(OC(F)F)c4)cc32)OC1=O` (racemic) [Example 128, (RS)-5-((6-(3-(Difluoromethoxy)-4-fluorophenyl)-1H-pyrazolo[4,3-b]pyridin-1-yl)methyl)-3-methyloxazolidin-2-one], for which the IC50 came out at 165 nM.
As to `CCC(=O)Cn1ncc2ncc(-c3ccc(F)c(C)c3)cc21` [Example 32, 1-[6-(4-Fluoro-3-methyl-phenyl)pyrazolo[4,3-b]pyridin-1-yl]butan-2-one Trifluoroacetate Salt], the half-inhibitory concentration (IC50) is 12 nM.
`CCC(F)(F)Cn1ncc2ncc(-c3ccc(F)c(C(F)F)c3)cc21` [Example 98, 1-(2,2-Difluorobutyl)-6-[3-(difluoromethyl)-4-fluoro-phenyl]pyrazolo[4,3-b]pyridine]: the IC50 is 89 nM.
For the compound `O=C1NCC(Cn2ncc3ncc(-c4ccc(F)c(OC(F)F)c4)cc32)O1` (racemic) [Example 125, (RS)-5-[[6-[3-(Difluoromethoxy)-4-fluoro-phenyl]pyrazolo[4,3-b]pyridin-1-yl]methyl]oxazolidin-2-one], the IC50 was determined as 498 nM.
As for `O=C(Cn1ncc2ncc(-c3ccc(F)c(C(F)F)c3)cc21)c1ccsc1` [Example 138, 2-[6-[3-(Difluoromethyl)-4-fluoro-phenyl]pyrazolo[4,3-b]pyridin-1-yl]-1-(3-thienyl)ethanone], the concentration for half-maximal inhibition (IC50) was found to be 100 nM.

The values are drawn from patent publication US11161846B2, “Substituted pyrazolo[4,3-b]pyridines and their use as GluN2B receptor modulators” (JANSSEN PHARMACEUTICA NV, priority 2019, dated 2021).
